Particle size data for two compounds are collected here from patent US12678400B2, “Implantable devices for drug delivery with reduced burst release” (TITAN PHARMACEUTICALS, INC., priority 2016, dated 2026).

The data set in a line: Particle size of spray-dried porogen powders by optical microscope. It counts as physicochemical. Conditions: spray dried from ethanol solution. An excerpt:
Citric acid and benzoic acid were spray dried from ethanol solution (10% w/v solids) using a ProCepT model 4M8 system. The citric acid was collected in a single fraction in about 65% yield, while the benzoic acid was collected in two fractions with a total yield of around 55%. The powders were characterized for particle size and morphology using an Olympus BX60 optical microscope. […] The two preparations of benzoic acid differed primarily by the preponderance of ribbon-like particles in the second fraction. The citric acid powder blend was appreciably more dense than the benzoic acid powder blends, and the latter required more careful sweeping of the feeder hopper to promote conveyance. However, the ultimate extrusion, molding, and physical handling characteristics were similar between the blends.

Take `O=C(O)c1ccccc1` [benzoic acid]: the Particle size is listed as 30-150 μm.
The same measure for `O=C(O)CC(O)(CC(=O)O)C(=O)O` [citric acid]: 10-20 μm.
